In one data set the target is ATR (Homo sapiens (Human), UniProt Q13535). Nature of the data set: ATR kinase inhibition assay (HTRF). Format: biochemical. The note with it: p53 substrate, ATP 150 nM. As for the experimental part:
This experiment adopted Homogeneous time-resolved fluorescence technology (HTRF®) of Cisbio Company for assay.
Experiment method: buffers were prepared as follows:
Preparation of solutions of the test compounds: The example compounds shown in the table below were prepared into solutions using DMSO as solvent, the stock solution typically being 10 mM. The maximum starting concentration in this experiment was 3 μM, DMSO 3-fold serial dilutions for concentrations, the serially diluted solution was added to each well of the corresponding 384-well plate (geriner bio-one, Cat #784075) to give final concentrations of 3000, 1000, 333, 111, 37, 12.3, 4.12, 1.37, 0.457, 0.152 nM, respectively, and the corresponding amount of DMSO was added to the additional wells to be used as negative or positive control wells, respectively.
The enzyme and substrate were separately dissolved and diluted in two tubes with the buffer prepared above at the following concentrations:
5 μL of the ATR protein solution from tube A was added to the compound-containing wells and the negative control wells in the assay plates using an electric multichannel pipettor, and the same volume of the prepared buffer (medium only, no enzyme) was added to the positive control wells. The plates were centrifuged for one minute at 1000 rpm, and then placed in an incubator at 25° C. for 15 minutes. 5 μL of the substrate mix solution from tube B was added to the positive control well, negative control well and the compound-containing well of the assay plates in the same manner, centrifuged and incubated at 25° C. for 90 minutes.
During the reaction, after ATR phosphorylated the substrate p53, two antibodies were added. Among them, anti-phospho-p53-Eu, as an energy donor, can specifically bind to the phosphorylation site of p53, while anti-GST-d2, as an energy receptor, can specifically bind to the GST-tagged p53. Upon excitation by a laser with certain wavelength (the excitation wavelength in this experiment is 340 nm), the energy donor can emit emission light of 615 nm, and when the energy donor and the energy receptor are close enough in space (that is, two antibodies are connected to p53 at the same time), energy transfer can occur between the energy donor and the energy receptor, so that the energy receptor can emit emission light of 665 nm. The two emission lights were detected by a plate reader, and the ratio of the signals at 665 nm and 615 nm was calculated. The IC50 of the samples tested can be obtained by plotting and calculation.
10 μL per well of the detection solution was added to the positive control, negative control and compound wells of the assay plate using an electric multichannel pipette, centrifuged and incubated overnight at 4° C., and read with the plate reader Envision 2104.
Compound inhibition rate was calculated using interpolation. The mean values of the positive and negative controls were calculated respectively, and the following formula was used to calculate the inhibition rates of the compounds:
Inhibition rate Minimum response+(Compound concentration ^Curve slope)*(Maximum response−Minimum response)/(Compound concentration^Curve slope+Half inhibition concentration ^Curve slope)
The IC50 value of each compound to enzyme activity was obtained.
A general note: TR-FRET usually uses a lanthanide donor and a delayed reading to cut background.

The subject of another data set is LOVO cells. Nature of the data set: Cell proliferation assay (CellTiter-Glo). Conditions: Homo sapiens, 96 hours. In kind it is cell-based. As for the experimental part:
The cell proliferation inhibition effect of the compound of the invention was tested using CellTiter-Glo™ cell viability assay kit. This kit uses luciferase as the detector. During the luminescence process, the luciferase requires the participation of ATP. CellTiter-Glo™ reagent was added to the cell culture medium, and the luminescence value was measured. The light signal is proportional to the amount of ATP present in the system, and ATP positively correlates with the number of viable cells present, thus the cell proliferation activity is measured.
Cell culture and seeding: LOVO cells in logarithmic growth phase (human colon carcinoma cells) (ATCC CCL-229) were harvested and counted using a platelet counter. Trypan blue exclusion method was used to detect the cell viability to ensure that the cell viability was above 90%. 90 μL of cell suspension (RPMI1640+10% fetal bovine serum) was added to a 96-well transparent flat-bottom black-wall plate (Thermo, 165305) respectively, and the cell concentration was adjusted to 3000/well/90 μl. Cells in the 96-well plate were incubated overnight at 37° C., 5% CO2 with 95% humidity (Thermo, Model 3100 Series).
Firstly, DMSO was used as the solvent to prepare 10 mM mother solution of the test compounds, and then PBS was used to dilute 100 times to prepare a solution of 10 times of final concentration, the highest concentration was 100 μM. 10 μL solution of the test compounds was added to each well of the 96 well plate inoculated with cells, namely the solution was further diluted 10 times to reach the final concentration of 10 μM. Starting from 10 μM, the final concentration of the test compound was 3-fold serially diluted, with 9 concentrations in total with 3 triplicates for each concentration. The 96 well plates with the test compounds and cells were incubated at 37° C., 5% CO2 and 95% humidity for 96 hours, and then CellTiter Glo analysis was performed.
CellTiter-Glo Reagents (CellTiter Glo R Luminescent Cell Viability Assay, Promega, G7572) were melted and the 96-well plates were equilibrated to room temperature for 30 minutes. An equal volume of CellTiter-Glo solution was added to each well, and the cells were lysed by shaking on the fixed orbit shaker for 5 minutes. The assay plates were left at room temperature for 20 minutes to stabilize the luminescence signal, and the luminescence signals were read using the SpectraMax multi-labeled microplate detector (MD, M3).
Data were analyzed using GraphPad Prism 7.0 software, fitted with non-linear S-curve regression to derive the dose-response curves, and IC50 values were calculated therefrom.
Cell survival rate (%)=(LumDrug to be tested−LumCulture medium control)/(LumCell control−LumCulture medium control)×100%
A general note: ATP-based viability assays read luminescence as a measure of living cells.

Data set [1] is described as follows: Equilibrium solubility in FaSSIF. In kind it is physicochemical. The note with it: thermodynamic from solid; FaSSIF pH 6.5, shaken 24 hours. The protocol: The compound powder was weighed into a volumetric flask, 450 μL of pH 6.5 FaSSIF solution was added to obtain a supersaturated suspension, the samples were vortexed for at least 2 minutes, and the volumetric flasks were shaken on a vibrating screen at 800 rpm for 24 hours, and then centrifuged at 4000 rpm for 20 minutes. The compressed filtrate was added to a HPLC system, and the concentrations were calculated by a standard curve method.

The nature of data set [2]: Pharmacokinetic (PK) assay in mice. In kind it is in vivo. The note with it: CD-1 mice; for AUC(0-t): read-out: AUC0-24 h. The protocol: The PK of each compound was determined as follows: 6 CD-1 mice (obtained from Shanghai Lingchang Biotechnology Co., Ltd.) were divided into two groups, 3 mice in each group. […] Blood samples were collected from saphenous vein of lower leg in each group at 0, 0.083, 0.25, 0.5, 1, 2, 4, 6, 8 and 24 h after administration. Approximately 40 μL of the blood samples were collected in anticoagulant tubes containing EDTA-K2. Immediately after collection, the tubes were inverted at least 5 times to ensure adequate mixing, and then placed on ice. The blood samples collected at each time point were centrifuged at 4° C., 8000 rpm for 5 minutes to obtain plasma. Another 1.5 mL centrifuge tube was marked with the compound name, animal number, and time point, and the plasma was transferred to this tube. The plasma was stored at −80° C. until analysis.
Compound concentrations in plasma were determined by UPLC-MS/MS method, and the pharmacokinetic parameters were calculated by Phoenix WinNolin 6.4 pharmacokinetic software on the obtained data.

In brackets after ≈: the same amount, converted by molar mass. Where two headings read alike, the source gives them in different places.

In general, IC50 refers to the point on the concentration scale where inhibition reaches its midpoint. A high value points to a need for much substance. The term solubility denotes the concentration that dissolves in the medium under given conditions. Read a high solubility as much dissolved substance. In general, half-life refers to how long it takes for the measured level to halve. The bioavailability is the share of a dose that reaches the circulation, judged against a reference dose that is usually intravenous. Read a high bioavailability as much systemic uptake. In general, Cmax refers to the maximum level reached in the sampled fluid or tissue.

ATR, sequence (Q13535 whole entry): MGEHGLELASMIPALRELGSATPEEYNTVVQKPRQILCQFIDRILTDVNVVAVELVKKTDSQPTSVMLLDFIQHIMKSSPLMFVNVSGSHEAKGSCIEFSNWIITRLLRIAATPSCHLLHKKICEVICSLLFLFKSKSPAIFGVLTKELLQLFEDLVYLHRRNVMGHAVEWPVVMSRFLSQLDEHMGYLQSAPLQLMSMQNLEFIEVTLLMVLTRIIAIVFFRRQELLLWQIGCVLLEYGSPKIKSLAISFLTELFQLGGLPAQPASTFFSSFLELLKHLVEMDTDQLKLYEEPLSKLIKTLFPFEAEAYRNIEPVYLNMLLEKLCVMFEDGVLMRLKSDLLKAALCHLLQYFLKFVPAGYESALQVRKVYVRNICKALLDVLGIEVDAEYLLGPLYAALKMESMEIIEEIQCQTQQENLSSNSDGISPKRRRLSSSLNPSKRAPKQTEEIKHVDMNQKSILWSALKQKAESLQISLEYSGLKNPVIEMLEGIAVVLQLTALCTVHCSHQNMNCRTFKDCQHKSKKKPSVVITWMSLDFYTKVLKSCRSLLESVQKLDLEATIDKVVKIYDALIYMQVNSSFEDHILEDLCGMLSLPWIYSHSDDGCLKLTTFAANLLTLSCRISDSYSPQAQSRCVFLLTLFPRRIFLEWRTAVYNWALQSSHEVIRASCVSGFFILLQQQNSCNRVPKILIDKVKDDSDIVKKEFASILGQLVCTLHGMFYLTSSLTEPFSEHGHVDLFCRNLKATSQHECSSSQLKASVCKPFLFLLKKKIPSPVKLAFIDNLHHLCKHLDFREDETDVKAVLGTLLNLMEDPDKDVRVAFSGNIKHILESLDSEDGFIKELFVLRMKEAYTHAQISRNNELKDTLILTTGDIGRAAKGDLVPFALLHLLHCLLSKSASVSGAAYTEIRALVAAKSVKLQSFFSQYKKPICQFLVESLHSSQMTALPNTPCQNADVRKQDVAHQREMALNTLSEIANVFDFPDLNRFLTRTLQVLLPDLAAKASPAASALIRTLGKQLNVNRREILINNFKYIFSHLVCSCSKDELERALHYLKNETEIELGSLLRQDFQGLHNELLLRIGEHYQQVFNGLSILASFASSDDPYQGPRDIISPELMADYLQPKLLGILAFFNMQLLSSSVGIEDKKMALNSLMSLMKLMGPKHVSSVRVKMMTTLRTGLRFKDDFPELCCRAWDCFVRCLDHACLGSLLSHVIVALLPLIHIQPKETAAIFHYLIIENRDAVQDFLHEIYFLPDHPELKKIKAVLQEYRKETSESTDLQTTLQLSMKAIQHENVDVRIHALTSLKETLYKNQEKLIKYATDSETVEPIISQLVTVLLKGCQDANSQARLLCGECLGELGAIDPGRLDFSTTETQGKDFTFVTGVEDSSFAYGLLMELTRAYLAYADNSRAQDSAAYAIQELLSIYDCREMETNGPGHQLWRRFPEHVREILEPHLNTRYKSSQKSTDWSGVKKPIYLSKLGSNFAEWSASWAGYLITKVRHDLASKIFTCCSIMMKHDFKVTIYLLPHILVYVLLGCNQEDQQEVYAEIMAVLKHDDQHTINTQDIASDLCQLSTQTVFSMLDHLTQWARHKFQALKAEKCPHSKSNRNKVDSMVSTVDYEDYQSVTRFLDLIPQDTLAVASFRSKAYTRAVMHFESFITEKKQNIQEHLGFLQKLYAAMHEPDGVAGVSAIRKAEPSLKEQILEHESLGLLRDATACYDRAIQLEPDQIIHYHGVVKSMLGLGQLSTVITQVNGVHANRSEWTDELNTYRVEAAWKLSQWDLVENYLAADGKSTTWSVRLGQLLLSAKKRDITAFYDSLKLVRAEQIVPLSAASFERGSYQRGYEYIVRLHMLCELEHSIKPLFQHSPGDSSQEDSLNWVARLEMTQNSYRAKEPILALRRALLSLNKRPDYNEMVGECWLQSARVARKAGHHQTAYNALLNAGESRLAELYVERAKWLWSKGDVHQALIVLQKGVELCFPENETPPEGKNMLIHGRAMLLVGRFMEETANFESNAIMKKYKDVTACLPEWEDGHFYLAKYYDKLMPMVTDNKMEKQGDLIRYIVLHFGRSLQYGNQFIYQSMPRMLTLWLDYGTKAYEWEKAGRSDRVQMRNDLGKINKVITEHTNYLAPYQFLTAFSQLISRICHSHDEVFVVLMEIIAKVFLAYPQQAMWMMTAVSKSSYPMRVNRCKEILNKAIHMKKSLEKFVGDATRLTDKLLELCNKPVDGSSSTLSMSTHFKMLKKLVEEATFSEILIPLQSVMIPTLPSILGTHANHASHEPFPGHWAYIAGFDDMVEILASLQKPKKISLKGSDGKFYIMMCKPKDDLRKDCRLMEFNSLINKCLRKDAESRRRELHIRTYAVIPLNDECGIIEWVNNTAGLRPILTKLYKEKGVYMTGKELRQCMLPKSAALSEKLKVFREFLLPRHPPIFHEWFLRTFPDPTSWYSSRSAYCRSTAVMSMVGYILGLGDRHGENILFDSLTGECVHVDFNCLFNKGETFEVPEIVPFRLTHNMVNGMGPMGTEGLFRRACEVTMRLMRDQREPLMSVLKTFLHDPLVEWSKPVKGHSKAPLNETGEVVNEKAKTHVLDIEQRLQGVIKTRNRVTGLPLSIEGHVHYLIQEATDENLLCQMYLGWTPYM
ATR, sequence (Q8WXE1 whole entry partner): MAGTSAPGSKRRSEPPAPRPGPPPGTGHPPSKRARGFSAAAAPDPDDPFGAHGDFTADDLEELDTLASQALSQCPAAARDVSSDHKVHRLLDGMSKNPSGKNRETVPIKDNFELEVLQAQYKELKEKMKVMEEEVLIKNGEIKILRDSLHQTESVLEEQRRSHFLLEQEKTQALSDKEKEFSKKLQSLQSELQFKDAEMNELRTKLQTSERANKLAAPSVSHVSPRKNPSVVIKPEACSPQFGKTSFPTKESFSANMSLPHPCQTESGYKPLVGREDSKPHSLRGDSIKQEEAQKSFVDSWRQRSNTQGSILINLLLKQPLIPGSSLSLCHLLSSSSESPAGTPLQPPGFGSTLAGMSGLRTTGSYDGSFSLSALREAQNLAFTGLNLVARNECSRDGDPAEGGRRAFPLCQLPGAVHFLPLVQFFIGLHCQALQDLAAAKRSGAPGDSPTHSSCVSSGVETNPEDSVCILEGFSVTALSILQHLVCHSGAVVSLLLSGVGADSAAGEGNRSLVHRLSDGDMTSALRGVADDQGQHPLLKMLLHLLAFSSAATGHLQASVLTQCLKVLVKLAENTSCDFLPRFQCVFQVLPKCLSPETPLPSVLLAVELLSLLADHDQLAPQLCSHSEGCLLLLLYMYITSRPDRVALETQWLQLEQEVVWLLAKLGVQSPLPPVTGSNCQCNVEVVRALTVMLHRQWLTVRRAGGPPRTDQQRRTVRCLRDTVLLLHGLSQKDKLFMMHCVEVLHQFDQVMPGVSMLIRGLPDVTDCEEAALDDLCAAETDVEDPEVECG

In the case of `C[C@@H]1COCCN1c1cc(N2CC3CCC(C2)O3)nn2c(-c3cc[nH]n3)ncc12` [Example 3, 3-(4-((R)-3-methylmorpholino)-7-(1H-pyrazol-3-yl)imidazo[1,5-b]pyridazin-2-yl)-8-oxa-3-azabicyclo[3.2.1]octane], the IC50 against ATR stood at 5.9 nM; in the data set on LOVO cells, 67 nM. In data set [1], the concentration in solution (solubility at 24 h) was 1140 µg/mL (≈ 2890 µM). Further, the CL_obs in data set [2] (IV dose 1 mg/kg) came out at 10.0 mL/min/kg. The half-life in data set [2] (mouse, plasma, IV dose 1 mg/kg) is 7.56 h; in data set [2] (mouse, plasma, Po dose 5 mg/kg), 3.99 h. In addition, the Vd in data set [2] (mouse, plasma, IV dose 1 mg/kg, read-out: Vss) is 1.03 L/kg. In data set [2] (mouse, plasma, Po dose 5 mg/kg vs IV dose 1 mg/kg), the bioavailability turned out to be 77.5%. Also, the C0 in data set [2] (mouse, IV dose 1 mg/kg, plasma) came out at 2860 ng/mL. Also, the AUC(0-t) in data set [2] (mouse, IV dose 1 mg/kg, plasma) amounted to 1650 ng·h/mL; in data set [2] (mouse, Po dose 5 mg/kg, plasma), 6460 ng·h/mL. For the same molecule, the peak concentration (Cmax) in data set [2] (mouse, Po dose 5 mg/kg, plasma) was 3150 ng/mL.

Source of the values: patent US20240294550A1, “8-OXA-3-AZABICYCLO[3.2.1]OCTANE COMPOUNDS OR SALT THEREOF, AND PREPARATION METHOD AND USE THEREOF” (LITTDD MEDICINES LTD, priority 2021, published 2024).
